The values that follow come from US20240327429A1, “[1,3]Thiazolo[4,5-d]-pyrimidon-7-ones as inhibitors of NOX4” (Boehringer Ingelheim International GmbH, priority 2023, published 2024).

The target in one data set is T1, human NOX4 (hNOX4) (Homo sapiens, UniProt Q9NPH5).
T1 sequence (Q9NPH5 1-578): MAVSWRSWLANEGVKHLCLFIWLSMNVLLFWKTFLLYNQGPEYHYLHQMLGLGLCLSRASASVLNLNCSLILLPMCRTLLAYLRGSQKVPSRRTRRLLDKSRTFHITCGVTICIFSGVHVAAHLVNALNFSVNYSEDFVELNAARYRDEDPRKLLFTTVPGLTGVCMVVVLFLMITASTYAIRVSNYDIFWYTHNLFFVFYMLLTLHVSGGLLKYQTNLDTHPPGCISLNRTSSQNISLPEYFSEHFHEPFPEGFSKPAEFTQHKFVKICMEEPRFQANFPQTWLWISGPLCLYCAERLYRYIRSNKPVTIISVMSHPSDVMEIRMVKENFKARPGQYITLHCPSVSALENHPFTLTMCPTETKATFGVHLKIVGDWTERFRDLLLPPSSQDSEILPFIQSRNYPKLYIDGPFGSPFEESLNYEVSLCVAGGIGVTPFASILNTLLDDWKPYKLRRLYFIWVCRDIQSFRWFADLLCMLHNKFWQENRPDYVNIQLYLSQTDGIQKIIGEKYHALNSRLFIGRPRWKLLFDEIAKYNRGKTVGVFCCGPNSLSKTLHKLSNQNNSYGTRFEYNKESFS
T1 sequence (P13498 2-195 partner limits assumed): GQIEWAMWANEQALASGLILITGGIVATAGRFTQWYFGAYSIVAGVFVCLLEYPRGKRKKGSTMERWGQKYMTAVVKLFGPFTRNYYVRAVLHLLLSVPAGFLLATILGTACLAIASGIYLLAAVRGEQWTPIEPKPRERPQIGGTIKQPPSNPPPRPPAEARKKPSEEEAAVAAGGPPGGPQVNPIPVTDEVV
Briefly: cell-based.

The target in the next data set is T2, human NOX1 (hNOX1) (Homo sapiens, UniProt Q9Y5S8).
T2 construct: pLV-CMV-hNOX1-puro (NM_007052.5); host or cells: HEK293 (CLS GmbH), lentiviral transduction
T2 sequence (Q9Y5S8 1-564): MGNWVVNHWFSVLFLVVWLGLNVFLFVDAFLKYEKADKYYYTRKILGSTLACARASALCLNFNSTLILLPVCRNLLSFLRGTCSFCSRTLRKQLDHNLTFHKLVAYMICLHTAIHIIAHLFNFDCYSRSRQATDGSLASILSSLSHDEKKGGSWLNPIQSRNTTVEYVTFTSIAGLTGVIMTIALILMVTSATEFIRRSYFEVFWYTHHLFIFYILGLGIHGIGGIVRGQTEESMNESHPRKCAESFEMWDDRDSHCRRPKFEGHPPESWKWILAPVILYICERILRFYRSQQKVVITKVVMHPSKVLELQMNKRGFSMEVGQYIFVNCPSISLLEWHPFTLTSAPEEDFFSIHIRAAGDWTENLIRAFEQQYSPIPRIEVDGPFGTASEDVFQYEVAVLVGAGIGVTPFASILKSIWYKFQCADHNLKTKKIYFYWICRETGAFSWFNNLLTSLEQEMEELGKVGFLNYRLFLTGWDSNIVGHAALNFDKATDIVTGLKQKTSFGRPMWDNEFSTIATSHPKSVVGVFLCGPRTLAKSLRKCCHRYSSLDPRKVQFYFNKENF
T2 sequence (P13498 2-195 partner limits assumed): T1 sequence (P13498 2-195 partner limits assumed)
The data set is described as follows: NOX1 inhibition assay (L-012), HEK293 cells stably overexpressing human NOX1. The data set is classed as cell-based. The note with it: HEK293-hNOX1, PMA stimulated. The source says: Plasmids are Purchased from Vectorbuilder. • for HEK-hNOX1 all necessary subunits are cloned accordingly: • pLV-CMV-hNOX1-puro (NM_007052.5) • pLV-CMV-hNOXO1-blas (NM_172168.3) • pLV-CMV-hp22phox-hygro (NM_000101.4) • pLV-CMV-hNOXA1-neo (NM_006647.2) • for HEK-hNOX3 • pLV-CMV-hNOX3-puro (NM_015718.3)
3rd generation lentiviral particles are produced in HEK293 suspension cells by transient transfection of three helper and expression plasmids. Crucial lentivirus supernatants are harvested, clarified by filtration and concentrated by precipitation. Lentivirus titers are determined in transducing units in (TU/mL) by transduction of HT1080 cells and colony forming assay. Parental HEK293 cells, purchased from CLS GmbH, are transduced with replication-incompetent 3rd generation lentiviral particles (MOI 2) and expanded for at least 2 weeks before cryopreservation of tested lots. During cultivation, medium is changed three times per week and cells are sub-cultured at least once per week. Selection antibiotics are added according to the plasmids (1 μg/ml puromycin, 1.5 μg/ml blasticidin, 200 μg/ml G418 and 100 μg/ml hygromycin).
Evaluation of the NOX4 inhibitors on NOX1 activity is assessed in HEK293 cells stably overexpressing human NOX1 (hNOX1).
Lastly, 8-amino-5-chloro-2,3-dihydro-7-phenyl-pyrido[3,4-d]pyridazine-1,4-dione sodium salt (L-012, CAS 143556-24-5) is added at 400 μM to all wells, and cells are incubated in an incubator for an additional 3 h. Afterwards luminescence is measured with a SpectraMax Paradigm Microplate Reader.

A further data set has as its target T3, NOX4 (Homo sapiens, UniProt Q9NPH5).
T3 construct: host or cells: modified HEK cells
T3 sequence (Q9NPH5 1-578): T1 sequence (Q9NPH5 1-578)
T3 sequence (P13498 2-195 partner limits assumed): T1 sequence (P13498 2-195 partner limits assumed)
The note with it: modified HEK cells, Amplex Red; read-out: NOX4 IC50 [μM] as disclosed in WO2016207785; cited from earlier work.

The test system of a further data set is human hepatocytes. The data set is described as follows: Evaluation of hepatocyte clearance (metabolic stability). The data set is classed as in vitro ADME. The note with it: % of hepatic blood flow. The procedure:
The metabolic degradation of the test compound is assayed in a hepatocyte suspension. Hepatocytes (cryopreserved) are incubated in Dulbecco's modified eagle medium (supplemented with […] glucagon/500 mL, 2.5 mg insulin/500 mL and 3.75 mg/500 mL hydrocortisone) containing 5% human serum.
Following a 30 min preincubation in an incubator (37° C., 10% CO2) 5 μl of test compound solution (80 μM; from 2 mM in DMSO stock solution diluted 1:25 with medium) are added into 395 μl hepatocyte suspension (cell density in the range 0.25-5 Mio cells/mL, typically 1 Mio cells/mL; final concentration of test compound 1 μM, final DMSO concentration 0.05%).
The cells are incubated for six hours (incubator, orbital shaker) and samples (25 μl) are taken at 0, 0.5, 1, 2, 4 and 6 hours. Samples are transferred into acetonitrile and pelleted by centrifugation (5 min). The supernatant is transferred to a new 96-deepwell plate, evaporated under nitrogen and resuspended.
Decline of Parent Compound is Analyzed by HPLC-MS/MS.
CLint is Calculated as Follows:
CL_[…]=Dose/AUC=(C0/CD)/(AUD+clast/k)×1000/60. • C0: initial concentration in the incubation [μM], CD: cell density of vital cells [10^6 cells/mL], AUD: area under the data [μM×h], clast: concentration of last data point [μM], • k: slope of the regression line for parent decline [h-1].
The calculated in vitro hepatic intrinsic clearance can be scaled up to the intrinsic in vivo hepatic clearance and used to predict hepatic in vivo blood clearance (CL) by the use of a liver model (well stirred model).
CL_[…]_INVIVO[ml/min/kg]=(CL_[…][μL/min/10^6 cells]×hepatocellularity[10^6 cells/g liver]×liver factor[g/kg bodyweight])/1000
CL[ml/min/kg]=CL_[…]_INVIVO[ml/min/kg]×hepatic blood flow[ml/min/kg]/(CL_[…]_INVIVO[ml/min/kg]+hepatic blood flow[ml/min/kg])

Values joined by “and” are separate entries in the source; they are usually repeats but may differ in a detail not shown here. Identical values can stand only once.

Method for human NOX4 (hNOX4): The synthetic gene phNOX4_DNA3_1_Zeo (Accession: AAF68973) is assembled from synthetic oligonucleotides and/or PCR products. The fragment is cloned into pcDNA3.1_Zeo_A011 using NheI and XhoI cloning sites. The plasmid DNA is purified from transformed bacteria and its concentration is determined by UV spectroscopy. The final construct is verified by sequencing. The plasmid is transfected via electroporation (Amaxa electroporation device) in combination with Nucleofector Kit V. Selection of NOX4 overexpressing genes is achieved using selection antibiotic Zeocin.
The inhibitory activity of the example compounds of the invention is determined using the following procedure:
Cells are cultured in the Dulbecco's Modified Eagle Medium (DMEM) media containing 4.5 g/L glucose supplemented with 10% fetal calf serum and 250 μg/ml Zeocin in an incubator at 37° C. with 5% CO2. For the assay, cells are seeded in 384 well plates.
After incubation Lumigen HyPerBlu™ is added and cells are incubated for additional 30 min at 24° C. in a humidified incubator. Next, luminescence is measured using an Envision Multimode Plate reader to determine levels of produced H2O2 in the wells.

Consider `O=c1c2scnc2nc(SCc2cccc(F)c2)n1-c1ccc(O)cc1` [Example 1, 5-((3-Fluorobenzyl)thio)-6-(4-hydroxyphenyl)thiazolo[4,5-d]pyrimidin-7(6H)-one], for which the half-inhibitory concentration (IC50) (commonly the concentration that gives 50% inhibition) is 560 nM and 555 nM at human NOX4 (hNOX4); over 100000 nM at human NOX1 (hNOX1); 0.34 µM at NOX4. Besides, the “clearance in human hepatocytes” value in the data set on human hepatocytes was 52 % QH.

`O=c1c2scnc2nc(SCc2c(F)cc(F)cc2F)n1-c1cncc(F)c1` [reference compound] came in with an IC50 on human NOX4 (hNOX4) of 1650 nM.

In the case of `O=c1c2scnc2nc(SCc2ccc(Cl)cc2)n1-c1cccnc1` [reference compound], the IC50 against human NOX4 (hNOX4) amounted to 5450 nM.

Consider `O=C(Nc1ccc2c(c1)CCO2)c1ccc2oc(N3CCC34COC4)nc2c1` [Example 80], for which the “clearance in human hepatocytes” value in the data set on human hepatocytes was 46 % QH.

`O=C(Nc1ccc2oc(N3CCC34COC4)nc2c1)c1ccc2c(c1)CCO2` [Example 15 of WO2016207785]: in the data set on human hepatocytes, the “clearance in human hepatocytes” value was found to be 29 % QH.

Take `Cc1cc(F)ccc1CSc1nc2ncsc2c(=O)n1-c1cccnc1` [reference compound]: on human NOX4 (hNOX4), the IC50 was 8120 nM.
